Measurements taken from article PMC5820647, “Simultaneous Quantification of Gallic Acid, Bergenin, Epicatechin, Epicatechin Gallate, Isoquercitrin, and Quercetin-3-Rhamnoside in Rat Plasma by LC-MS/MS Method and Its Application to Pharmacokinetics after Oral Administration of Ardisia japonica Extract” (Evidence-based Complementary and Alternative Medicine : eCAM, 2018).
Like-named read-outs stand apart in the source and are kept apart here.

Key:
[1] = assay type: physicochemical; conditions: for Free-throw 3 times Accuracy: 3 cycles freezing at about −20°C and thawing at room temperature; for 24 h stability Accuracy: autosampler, room temperature
Procedure: The standard stock solutions of gallic acid, bergenin, epicatechin, epicatechin gallate, isoquercitrin, and quercetin-3-rhamnoside were prepared by dissolving each separately in methanol to achieve a concentration of 1 mg mL^−1 for use as the stock solution. The three ISs including ferulic acid, puerarin, and warfarin were prepared using the same procedure as mentioned above with the concentration being 1 μg mL^−1. Calibration standard solutions were prepared by spiking the different concentrations of the standard mixture working solutions into plasma to achieve the concentration range of 2–500 ng mL^−1 for gallic acid; 2–500 ng mL^−1 for bergenin; 4–1000 ng mL^−1 for epicatechin; 2–500 ng mL^−1 for epicatechin gallate; 1–250 ng mL^−1 for isoquercitrin; and 0.4–100 ng mL^−1 for quercetin-3-rhamnoside. The QC samples were prepared by spiking 10 μL of the standard stock solutions into 100 μL of blank plasma to achieve LLOQ, low, medium and high concentrations of 2, 6, 20, and 200 ng mL^−1 for gallic acid; 2, 6, 20, and 200 ng mL^−1 for bergenin; 4, 12, 40, and 400 ng mL^−1 for epicatechin; 2, 6, 20, and 200 ng mL^−1 for epicatechin gallate; 1, 3, 10, and 100 ng mL^−1 for isoquercitrin; and 0.4, 1.2, 4, and 40 ng mL^−1 for quercetin-3-rhamnoside.
The stability for 6 analysis compounds including 24 h stability (keeping the sample in autosampler conditions of room temperature for 24 h), three freeze/thaw cycles (subjected to 3 cycles of freezing at about −20°C and thawing at room temperature), and a long-term stability (stored at about −80°C for 4 weeks) of analytes in plasma was performed by analyzing QC samples at four different concentrations.

[2] = Pharmacokinetic study in rats after oral administration of A. japonica extract (LC-MS/MS of plasma); assay type: in vivo; conditions: male, Sprague-Dawley; for Tmax: n = 10; for MRT: read-out: MRT(0–t24 h); for MRT inf: read-out: MRT(0–∞); for Cmax: read-out: peak plasma concentration (Cmax)
Procedure: The LC-MS/MS system consisted of an Agilent 1200 system coupled with a binary pump (G1312A), an autosampler (G13678), a vacuum degasser (G1322A), and an API 3200 triple quadrupole mass spectrometer with an ESI source. […] The flow rate was set at 300 μL min^−1 and the inject volume was 10 μL.
The analytes were determined in negative mode and quantified by multiple-reaction monitoring (MRM) mode. The source parameters were as follows: curtain gas, 25 psi; collision gas, 12 psi; ion spray voltage, −4500 V; temperature, 500°C; ion source gas 1, 45 psi; and ion source gas 2, 55 psi, respectively. Data acquisition was operated by Analyst 1.4.2 software (AB Sciex).
100 μL of plasma sample, 10 μL of the IS solutions, and 10 μL of 30% formic acid were added to the tube. Samples were vortex-mixed for 1 min, and 400 μL of acetonitrile was then used in precipitating the protein, after which they were centrifuged for 10 min at 14,000 rpm. The supernatant was transferred into another centrifuge tube and evaporated using nitrogen gas to dryness. The dried residue was reconstituted using 100 μL of methanol. The sample was further shaken and ultrasonicated for 2 min to ensure that it was well dissolved. It was subsequently centrifuged at 14,000 rpm for 10 min, and 10 μL aliquot of the solution was injected into the LC-MS/MS system for analysis.
Ten male Sprague-Dawley rats (270–280 g) were kept at the animal center of Tianjin University of Traditional Chinese Medicine (Tianjin, China) under environmentally controlled conditions. […] According to the clinical dose used in human, the rat dose of A. japonicae extracts used was 0.93 g kg^−1. […] After blood sample collection into the heparinized 1.5 mL polythene tubes and centrifugation at 6000 rpm for 10 min, the plasma was transferred into clean tubes and stored in a freezer at −20°C until analysis. The pharmacokinetic parameters were determined using pharmacokinetics program (DAS1.0 Medical College of Wannan, China) and performing a one compartmental analysis.

[3] = rat plasma, LLOQ QC concentration, n = 6
[4] = rat plasma, high QC concentration, n = 6
[5] = rat plasma, low QC concentration, n = 6
[6] = rat plasma, medium QC concentration, n = 6
[7] = rat, plasma, po, 0.93 g/kg, oral A. japonica extract 0.93 g kg^−1, one compartment model, read-out: AUC(0–24 h)
[8] = rat, plasma, po, 0.93 g/kg, oral A. japonica extract 0.93 g kg^−1, read-out: area under the curve (AUC0–24 h)
[9] = rat plasma, oral A. japonica extract 0.93 g kg^−1, one compartment model
[10] = rat plasma, oral A. japonica extract 0.93 g kg^−1
[11] = stored at about −80°C for 4 weeks, rat plasma, LLOQ QC concentration, n = 6
[12] = stored at about −80°C for 4 weeks, rat plasma, high QC concentration, n = 6
[13] = stored at about −80°C for 4 weeks, rat plasma, medium QC concentration, n = 6
[14] = in vivo, rat plasma, oral A. japonica extract 0.93 g kg^−1, one compartment model

Compound | Free-throw 3 times Accuracy [1, 3] | Free-throw 3 times Accuracy [1, 4] | Free-throw 3 times Accuracy [1, 5] | Free-throw 3 times Accuracy [1, 6] | AUC(0-t) [2, 7] | AUC(0-t) [2, 8] | AUC(0-inf) [2, 9] | half-life [2, 9] | Tmax [2, 9] | MRT [2, 9] | MRT inf [2, 9] | Cmax [2, 10] | 24 h stability Accuracy ([1]; LLOQ QC concentration, n = 6) | 24 h stability Accuracy ([1]; high QC concentration, n = 6) | 24 h stability Accuracy ([1]; low QC concentration, n = 6) | 24 h stability Accuracy ([1]; medium QC concentration, n = 6) | Long stability (1 month) Accuracy [1, 11] | Long stability (1 month) Accuracy [1, 12] | Long stability (1 month) Accuracy [1, 13] | other results
O=c1c(O[C@@H]2O[C@H](CO)[C@@H](O)[C@H](O)[C@H]2O)c(-c2ccc(O)c(O)c2)oc2cc(O)cc(O)c12 [Isoquercitrin, isoquercitrin] | 105% | 91.0% | 103% | 96.9% | – | – | – | – | – | – | – | – | – | – | – | – | – | – | – | –
O=C(O[C@@H]1Cc2c(O)cc(O)cc2O[C@@H]1c1ccc(O)c(O)c1)c1cc(O)c(O)c(O)c1 [Epicatechin gallate, epicatechin gallate] | 109% | 88.0% | 98.4% | 91.4% | – | – | – | – | – | – | – | – | – | – | – | – | – | – | – | –
O=C(O)c1cc(O)c(O)c(O)c1 [Gallic acid, gallic acid] | 92.5% | 101% | 114% | 94.0% | 0.194 ± 0.044 µg·h/mL | 0.194 ± 0.044 µg·h/mL | 0.2 ± 0.0439 µg·h/mL | 3.21 ± 4.56 h | 1.4 ± 1.13 h | 4.5 ± 1.15 h | 5.33 ± 1.61 h | 0.0355 ± 0.0102 µg/mL | 116% | 103% | 111% | 85.8% | 95.6% | 92.7% | 98.4% | Long stability (1 month) Accuracy ([1]; rat, 4 weeks): 101%
COc1c(O)cc2c(c1O)[C@@H]1O[C@H](CO)[C@@H](O)[C@H](O)[C@H]1OC2=O [Bergeninum, bergenin] | 106% | 87.3% | 104% | 94.0% | 1.74 ± 0.666 µg·h/mL | 1.74 ± 0.666 µg·h/mL | 1.84 ± 0.769 µg·h/mL | 3.87 ± 1.62 h | 0.86 ± 0.52 h | 6.04 ± 1.05 h | 7.26 ± 2.17 h | 0.288 ± 0.107 µg/mL | – | – | – | – | – | – | – | –
C[C@@H]1O[C@@H](Oc2c(-c3ccc(O)c(O)c3)oc3cc(O)cc(O)c3c2=O)[C@H](O)[C@H](O)[C@H]1O [Quercetin-3-rhamnoside, quercetin-3-rhamnoside] | 115% | 85.0% | 90.4% | 93.3% | – | – | – | – | – | – | – | – | 93.7% | 87.3% | 96.3% | 93.3% | 114% | 85.0% | 90.6% | AUC(0-inf) [2, 14]: 0.00695 ± 0.0207 µg·h/mL; half-life [2, 14]: 2.59 ± 2.8 h; Tmax [2, 14]: 0.5 ± 0.6 h; MRT [2, 14]: 5.08 ± 6.36 h; MRT inf [2, 14]: 7.09 ± 19.6 h; AUC(0-t) ([2]; in vivo, rat plasma, oral A. japonica extract 0.93 g kg^−1, read-out: area under the curve (AUC0–24 h)): 0.00644 ± 0.012 µg·h/mL; Cmax ([2]; in vivo, rat plasma, oral A. japonica extract 0.93 g kg^−1): 0.00708 ± 0.00828 µg/mL; Long stability (1 month) Accuracy ([1]; stored at about −80°C for 4 weeks, rat plasma, low QC concentration, n = 6): 92.2%
Oc1cc(O)c2c(c1)O[C@H](c1ccc(O)c(O)c1)[C@H](O)C2 [Epicatechin, epicatechin] | 105% | 99.4% | 111% | 111% | – | – | – | – | – | – | – | – | – | – | – | – | – | – | – | –
